According to patent US8129355B2, “Ketone ligands for modulating the expression of exogenous genes via an ecdysone receptor complex” (priority 2002, dated 2012):
Where two headings read alike, the source gives them in different places.

What was measured:
[1] = target: T1, Bombyx mori EcR (VP16 fusion, switch construct CVBE) with 6XEcRE LacZ reporter (Bombyx mori, UniProt P49881); experiment: Z3 assay: β-galactosidase (LacZ) reporter gene fold induction in stably transformed human 293 kidney cells (clone Z3); type: cell-based; settings: for Fold Induction Average, Z3 Assay (33 μM): single dose 33 μM, ligand treated / DMSO treated cells
T1 construct: expressed in transfected cells; host or cells: Human 293 kidney (HEK-293) cells, retrovirally infected, clone Z3
T1 sequence (P49881 86-606 limits assumed): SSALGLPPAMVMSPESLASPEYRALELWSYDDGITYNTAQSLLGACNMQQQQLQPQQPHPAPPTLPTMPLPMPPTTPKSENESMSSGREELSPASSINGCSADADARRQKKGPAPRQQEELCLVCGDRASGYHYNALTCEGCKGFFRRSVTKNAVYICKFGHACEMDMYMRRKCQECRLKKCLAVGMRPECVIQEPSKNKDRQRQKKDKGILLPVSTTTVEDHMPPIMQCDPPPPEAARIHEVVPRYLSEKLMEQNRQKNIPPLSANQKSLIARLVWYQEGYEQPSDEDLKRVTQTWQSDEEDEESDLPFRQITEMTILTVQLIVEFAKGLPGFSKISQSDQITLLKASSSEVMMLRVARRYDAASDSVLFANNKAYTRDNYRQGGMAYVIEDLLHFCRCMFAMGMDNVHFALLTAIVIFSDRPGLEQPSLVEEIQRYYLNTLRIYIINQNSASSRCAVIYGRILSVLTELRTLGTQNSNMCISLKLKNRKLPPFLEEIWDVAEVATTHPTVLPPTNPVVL
T1 sequence (P19793 1-462 partner): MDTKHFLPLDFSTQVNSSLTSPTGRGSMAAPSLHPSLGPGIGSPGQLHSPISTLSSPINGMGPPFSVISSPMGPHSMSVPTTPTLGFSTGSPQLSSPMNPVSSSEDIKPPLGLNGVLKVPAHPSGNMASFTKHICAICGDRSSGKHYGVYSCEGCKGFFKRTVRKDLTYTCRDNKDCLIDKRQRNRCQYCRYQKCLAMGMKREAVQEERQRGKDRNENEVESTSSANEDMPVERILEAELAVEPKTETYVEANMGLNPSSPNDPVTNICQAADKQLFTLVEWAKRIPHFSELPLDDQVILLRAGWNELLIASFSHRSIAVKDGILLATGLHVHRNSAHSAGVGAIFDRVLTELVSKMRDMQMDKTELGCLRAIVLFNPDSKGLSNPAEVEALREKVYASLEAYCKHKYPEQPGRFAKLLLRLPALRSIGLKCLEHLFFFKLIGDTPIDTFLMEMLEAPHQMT
From the text: Dr. F. Gage provided a population of stably transformed cells containing CVBE and 6XEcRE as described in Suhr, S. T., Gil, E. B., Senut M. C., Gage, F. H. (1998) Proc. Natl. Acad. Sci. USA 95, 7999-804. Human 293 kidney cells, also referred to as HEK-293 cells, were sequentially infected with retroviral vectors encoding first the switch construct CVBE, and subsequently the reporter construct 6XEcRE Lac Z. The switch construct contained the coding sequence for amino acids 26-546 from Bombyx mori EcR (BE) (Iatrou) inserted in frame and downstream of the VP16 transactivation domain (VBE). A synthetic ATG start codon was placed under the control of cytomegalovirus (CVBE) immediate early promoter and flanked by long terminal repeats (LTR). The reporter construct contained six copies of the ecdysone response element (EcRE) binding site placed upstream of LacZ and flanked on both sides with LTR sequences (6XEcRE).
Dilution cloning was used to isolate individual clones. Clones were selected using 450 ug/mL G418 and 100 ng/mL puromycin. Individual clones were evaluated based on their response in the presence and absence of test ligands. Clone Z3 was selected for screening and SAR purposes.
Human 293 kidney cells stably transformed with CVBE and 6XEcRE lack were maintained in Minimum Essential Medium (Mediates, 10-010-CV) containing 10% FBS (Life Technologies, 26140-087), […] G418 (Mediates, 30-234-CR), and […] (Sigma, P-7255), at 37° C. in an atmosphere containing 5% CO2 and were subculture when they reached 75% confluence.
Z3 cells were seeded into 96-well tissue culture plates at a concentration of 2.5×10^3 cells per well and incubated at 37° C. in 5% CO2 for twenty-four hours. Stock solutions of ligands were prepared in DMSO. Ligand stock solutions were diluted 100 fold in media and 50 μL of this diluted ligand solution (33 μM) was added to cells. The final concentration of DMSO was maintained at […] in both controls and treatments.
Reporter gene expression was evaluated 48 hours after treatment of cells, β-galactosidase activity was measured using Gal Screen™ bioluminescent reporter gene assay system from Tropix (GSY1000).
Flanking both constructs are long terminal repeats, G418 and puromycin are selectable markers, CMV is the cytomegalovirus promoter, VBE is coding sequence for amino acids 26-546 from Bombyx mori EcR inserted downstream of the VP16 transactivation domain, 6×EcRE is six copies of the ecdysone response element, lacZ encodes for the reporter enzyme β-galactosidase. Suhr, S. T., Gil, E. B., Senut M. C., Gage, F. H. (1998) Proc. Natl. Acad. Sci. USA 95, 7999-804. Swevers, L., Drevet, J. R., Lunke, M. D., Iatrou, K. (1995) Insect Biochem. Mol. Biol. 25, 857-866.

[2] = target: T2, GAL4 DBD-CfEcR(DEF)/VP16AD-MmRXRE (Choristoneura fumiferana, UniProt O77240); experiment: cell-based
T2 sequence (O77240 1-513): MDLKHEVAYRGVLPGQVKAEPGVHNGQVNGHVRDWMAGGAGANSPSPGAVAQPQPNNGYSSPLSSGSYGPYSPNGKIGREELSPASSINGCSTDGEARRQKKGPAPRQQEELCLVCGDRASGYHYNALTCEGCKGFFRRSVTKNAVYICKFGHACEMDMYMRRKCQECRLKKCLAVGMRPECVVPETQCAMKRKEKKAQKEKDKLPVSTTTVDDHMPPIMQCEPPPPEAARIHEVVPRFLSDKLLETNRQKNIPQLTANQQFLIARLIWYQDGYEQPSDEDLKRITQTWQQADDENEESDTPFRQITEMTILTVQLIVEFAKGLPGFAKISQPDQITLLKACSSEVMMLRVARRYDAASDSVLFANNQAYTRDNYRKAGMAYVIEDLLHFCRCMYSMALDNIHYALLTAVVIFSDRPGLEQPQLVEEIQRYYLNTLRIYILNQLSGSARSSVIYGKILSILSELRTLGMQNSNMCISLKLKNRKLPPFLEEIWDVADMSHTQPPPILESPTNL
From the text: GAL4 DBD-CfEcR(DEF)/VP16AD-MmRXRE: The wild-type D, E, and F domains from spruce budworm Choristoneura fumiferana EcR (“CfEcR-DEF”; SEQ ID NO: 1) were fused to a GAL4 DNA binding domain (“Gal4 DBD1-147”; nucleotides 31 to 471 of SEQ ID NO: 2) and placed under the control of the SV40e promoter of pM vector (PT3119-5, Clontech, Palo Alto, Calif.). The D and E domains from Mus Musculus RXR (“MmRXR-DE”; SEQ ID NO: 10) were fused to the transactivation domain from VP16 (“VP16AD”; SEQ ID NO: 5) and placed under the control of the SV40e promoter of the pVP16 vector (PT3127-5, Clontech, Palo Alto, Calif.).
CHO cells were transienty transfected with transcription cassettes for GAL4 DBD-CfEcR(DEF) and for VP16AD-MmRXRE controlled by SV40e promoters. Stably transfected cells were selected using Hygromycin. Individually isolated CHO cell clones were transiently transfected with a GAL4 RE-luciferase reporter (pMR-Luc, Stratagene, La Jolla, Calif.). The 13B3 clone was selected using Zeocin.
Cells were trypsinized and diluted to a concentration of 2.5×10^4 cells mL. 100 μL of cell suspension was placed in each well of a 96 well plate and incubated at 37° C. under 5% CO2 for 24 h. Ligand stock solutions were prepared in DMSO and diluted 300 fold for all treatments. Dose response testing consisted of 8 concentrations ranging from 33 μM to 0.01 μM.
Luciferase reporter gene expression was measured 48 h after cell treatment using Bright-Glo™ Luciferase Assay System from Promega (E2650). Luminescence was detected at room temperature using a Dynex MLX microtiter plate luminometer.
Fold inductions were calculated from single dose testing by dividing relative light units (RLU) in ligand treated cells by RLU in DMSO treated cells. BC50s were calculated from dose response data using a three-parameter logistic model.

COc1cccc(C(=O)NC(C)(CC(C)C)C(=O)c2ccc(F)c(C)c2)c1C (stereo not shown) [Example 54]
Fold Induction Average, Z3 Assay (33 μM) [1]: 41 | Fold Induction Average, 13B3 Assay (33 μM) [2]: 0

COc1cccc(C(=O)NC(C(=O)c2cccc(C)c2)(c2ccccc2)C(C)C)c1C (stereo not shown) [Example 57]
Fold Induction Average, Z3 Assay (33 μM) [1]: 8 | Fold Induction Average, 13B3 Assay (33 μM) [2]: 0

CCC(CC)(NC(=O)c1cccc(OC)c1C)C(=O)c1ccc(OC)cc1 [Example 58]
Fold Induction Average, Z3 Assay (33 μM) [1]: 4 | Fold Induction Average, 13B3 Assay (33 μM) [2]: 4

CCC(CC)(NC(=O)c1cccc(OC)c1C)C(=O)c1ccc2c(c1)OCO2 [Example 59]
Fold Induction Average, Z3 Assay (33 μM) [1]: 2 | Fold Induction Average, 13B3 Assay (33 μM) [2]: 0

COc1cccc(C(=O)NC2(C(=O)c3cccc(C)c3)CCC(=O)CC2)c1C [Example 61]
Fold Induction Average, Z3 Assay (33 μM) [1]: 102 | Fold Induction Average, 13B3 Assay (33 μM) [2]: 0

CC(=O)NC(C(=O)c1ccc(C)cc1)c1ccccc1 (stereo not shown) [Example 92]
Fold Induction Average, Z3 Assay (33 μM) [1]: 1 | Fold Induction Average, 13B3 Assay (33 μM) [2]: 0

CC(=O)NC(C(=O)c1ccccc1)c1ccc(C)cc1 (stereo not shown) [Example 93]
Fold Induction Average, Z3 Assay (33 μM) [1]: 1 | Fold Induction Average, 13B3 Assay (33 μM) [2]: 0

CC(=O)NC(C(=O)c1ccccc1)c1ccccc1 (stereo not shown) [Example 94]
Fold Induction Average, Z3 Assay (33 μM) [1]: 1 | Fold Induction Average, 13B3 Assay (33 μM) [2]: 1

CC(C)(NC(=O)c1ccc(Cl)cc1)C(=O)c1ccccc1 [Example 95]
CC50 ([1]; average, dose response, three-parameter logistic model, read-out: Z3 LC50): 820 nM | Z3 Rel Max FI ([1]; maximum fold induction at any concentration relative to that of GS-E ligand): 2.27 | Fold Induction Average, Z3 Assay (33 μM) [1]: 4 | Fold Induction Average, 13B3 Assay (33 μM) ([2]; single dose 33 μM, RLU ligand treated / RLU DMSO treated cells): 1

Cc1ccc(C(=O)NC(C(=O)c2ccccc2)C(C)(C)C)cc1 (stereo not shown) [Example 96]
Fold Induction Average, Z3 Assay (33 μM) [1]: 1 | Fold Induction Average, 13B3 Assay (33 μM) [2]: 0

Cc1cccc(C(=O)NC(C(=O)c2ccccc2)C(C)(C)C)c1C (stereo not shown) [Example 97]
Fold Induction Average, Z3 Assay (33 μM) [1]: 1 | Fold Induction Average, 13B3 Assay (33 μM) [2]: 0

CC(C)(C)C(NC(=O)c1ccc([N+](=O)[O-])cc1)C(=O)c1ccccc1 (stereo not shown) [Example 98]
Fold Induction Average, Z3 Assay (33 μM) [1]: 1 | Fold Induction Average, 13B3 Assay (33 μM) [2]: 0

COc1cccc(C(=O)C2(NC(=O)c3cccc(OC)c3C)CC2)c1 [Example 99]
Fold Induction Average, Z3 Assay (33 μM) [1]: 1 | Fold Induction Average, 13B3 Assay (33 μM) [2]: 0

COc1cccc(C(=O)C(C)(Cc2ccccc2)NC(=O)c2cccc(OC)c2C)c1 (stereo not shown) [Example 100]
Fold Induction Average, Z3 Assay (33 μM) [1]: 2 | Fold Induction Average, 13B3 Assay (33 μM) [2]: 0

COc1cccc(C(=O)NC2(C(=O)c3ccccc3C)CC2)c1C [Example 101]
Fold Induction Average, Z3 Assay (33 μM) [1]: 2 | Fold Induction Average, 13B3 Assay (33 μM) [2]: 2

Cc1c(C(=O)NC2(C(=O)c3ccccc3)CCCC2)oc2ccccc12 [Example 102]
Fold Induction Average, Z3 Assay (33 μM) [1]: 1 | Fold Induction Average, 13B3 Assay (33 μM) [2]: 1

CC(C)(NC(=O)c1ccccc1)C(=O)c1ccccc1 [Example 104]
Fold Induction Average, Z3 Assay (33 μM) [1]: 1 | Fold Induction Average, 13B3 Assay (33 μM) [2]: 0

Cc1ccccc1C(=O)NC(C)(C)C(=O)c1ccccc1 [Example 105]
Fold Induction Average, Z3 Assay (33 μM) [1]: 1 | Fold Induction Average, 13B3 Assay (33 μM) [2]: 3

CC(C)(NC(=O)c1ccc2c(c1)OCO2)C(=O)c1ccccc1 [Example 106]
Fold Induction Average, Z3 Assay (33 μM) [1]: 1 | Fold Induction Average, 13B3 Assay (33 μM) [2]: 3

COc1cccc(C(=O)NC(C)(C)C(=O)c2ccccc2)c1 [Example 107]
Fold Induction Average, Z3 Assay (33 μM) [1]: 1 | Fold Induction Average, 13B3 Assay (33 μM) [2]: 2

CCc1ccc(C(=O)NC(C)(C)C(=O)c2ccccc2)cc1 [Example 108]
Fold Induction Average, Z3 Assay (33 μM) [1]: 2 | Fold Induction Average, 13B3 Assay (33 μM) [2]: 1

COc1cccc(C(=O)NC2(C(=O)c3cccc(C)c3)CCN(C(=O)OC(C)(C)C)CC2)c1C [Example 109]
Fold Induction Average, Z3 Assay (33 μM) [1]: 3 | Fold Induction Average, 13B3 Assay (33 μM) [2]: 0
